# According to patent US9532988B2, “Pharmaceutical composition comprising a TRPA1 antagonist and an analgesic agent” (GLENMARK PHARMACEUTICALS S.A., priority 2013, dated 2017):
# Experiments:
# [1] = tested on: Streptozotocin (STZ)-induced diabetic peripheral neuropathic hyperalgesia in male SD rats; test: Streptozotocin-induced diabetic peripheral neuropathic hyperalgesia; type: in vivo, rat (Sprague-Dawley); details: Compound III 0.04 mg/kg p.o. alone; 0.5-4 h post-dose; Example 18, Table 21, FIG. 24
# Protocol: Streptozotocin (STZ)-induced neuropathic hyperalgesia in rats is a model to screen potential therapeutics for diabetic painful neuropathy in human patients. Streptozotocin was dissolved in freshly prepared cold citrate buffer (0.1 M, pH—4.4). Diabetes was induced in overnight fasted male SD rats (weighing 250-300 g) by a single intraperitoneal injection of Streptozotocin (Sigma, 55 mg/kg, i.p). […] On the day of the experiment (13th day after STZ injection) rats were assessed for mechanical hyperalgesia using Randall-Sellito paw pressure analgesymeter. Animals were weighed and grouped as described in Table 9.
# Rats were orally dosed with vehicle, duloxetine hydrochloride, Compound I potassium salt and combination (Duloxetine+Compound I).
# Streptozotocin (STZ)-induced neuropathic hyperalgesia in rats is a model to screen potential therapeutics for diabetic painful neuropathy in human patients. Streptozotocin was dissolved in freshly prepared cold citrate buffer (0.1 M, pH —4.4). Diabetes was induced in overnight fasted male Sprague Dawley rats by a single intraperitoneal injection of Streptozotocin (Sigma, 55 mg/kg, i.p). […] On the day of the experiment (13th day after STZ injection) rats were assessed for mechanical hyperalgesia using Randall-Sellito paw pressure analgesymeter.
# Rats were orally dosed with vehicle, different doses of duloxetine hydrochloride, Compound II disodium salt and combinations (duloxetine+Compound II—simultaneously). The post-dose paw withdrawal thresholds were measured at 1, 2 & 4 h after oral administration. […] Animals were weighed and grouped as described in Table 16.
# Rats were orally dosed with vehicle, different doses of duloxetine hydrochloride, Compound III disodium salt and combinations (duloxetine+Compound III—simultaneously). […] Animals were weighed and grouped as described in Table 21.
# [2] = tested on: FCA-induced thermal hyperalgesia in male SD rats; test: FCA-induced thermal hyperalgesia (Hargreaves apparatus); type: in vivo, rat (Sprague-Dawley); details: Compound III 0.039 mg/kg p.o. alone; 0.5-4 h post-dose; Example 16, Table 19, FIG. 22
# Protocol: The % reversal of mechanical/thermal hyperalgesia was calculated.
# [3] = tested on: MIA-osteoarthritis induced mechanical punctate allodynia in male SD rats; test: MIA-induced mechanical punctate allodynia (dynamic von Frey); type: in vivo, rat (Sprague-Dawley); details: 0.5-4 h post-dose, Example 19, Table 22, FIG. 25
# Protocol: MIA was dissolved in 0.9% sterile saline and administered using a 26½ gauge needle. Contralateral knees were injected intra-articularly with 50 μl of 0.9% sterile saline. On the day of the experiment (20 h after MIA injection), rats were evaluated for pre-dose mechanical punctate allodynia to assess the effect of MIA. After regrouping the rats after randomization, the pre- & post-dose mechanical allodynia was assessed for both hind paws. […] The % reversal of punctate allodynia was calculated as per standard procedure. Animals were weighed and grouped as described in Table 22.
# [4] = tested on: Freund's Complete Adjuvant (FCA)-induced inflammatory mechanical hyperalgesia in male SD rats; test: FCA-induced inflammatory mechanical hyperalgesia (Randall-Sellitto paw pressure);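 note: left hind paw withdrawal threshold (g) to rising pressure on an analgesymeter, FCA injected intraplantar 24 h earlier, thresholds taken before and 0.5, 1, 2 and 4 h after oral dosing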
# Protocol: Materials: FCA containing 1 mg/ml of heat killed and dried Mycobacterium tuberculosis (H37RA strain) emulsified in mineral oil and mannide mono-oleate; Male SD rats weighing 170-220 g; Paw Pressure Analgesymeter (37215, Ugo Basile, Comerio, Italy); Compound I potassium; and Diclofenac sodium
# Naïve withdrawal thresholds of the left hind paw to an increasing pressure (g) stimulus were measured in rats using the analgesymeter. FCA was injected (30 μl) into the plantar region of left paw of rats to induce the inflammatory hyperalgesia. Mechanical hyperalgesia (24 h after FCA injection) was assessed by measuring hind paw withdrawal thresholds.
# The post-dose paw withdrawal thresholds were measured at 0.5, 1, 2 & 4 h after oral administration. The percentage (%) reversal of mechanical hyperalgesia was calculated as per standard procedure.
# Naïve withdrawal thresholds of the left hind paw to an increasing pressure (g) stimulus were measured in rats using the analgesymeter. Freund's Complete Adjuvant (FCA) was injected (30 μl) into the plantar region of left paw of rats to induce the inflammatory hyperalgesia. Mechanical hyperalgesia (24 h after FCA injection) was assessed both pre- & post-dosing of drugs by measuring hind paw withdrawal thresholds. […] The post-dose paw withdrawal thresholds were measured at 0.5, 1, 2 & 4 h after oral administration. The % reversal of mechanical hyperalgesia was calculated.
# Naïve withdrawal thresholds of the left hind paw to an increasing pressure (g) stimulus were measured in rats using the analgesymeter.
# [5] = tested on: Monosodium Iodo Acetate (MIA)-osteoarthritis induced weight bearing deficit in male SD rats; test: MIA-osteoarthritis induced weight bearing deficit (incapacitance meter); type: in vivo, rat (Sprague-Dawley); details: naproxen 10 mg/kg p.o. alone; 0.5-4 h post-dose; Example 3, Table 5, FIG. 5
# Protocol: After recording basal weight borne by both hind limbs (naïve) using the incapacitance meter (IITC Inc), rats were briefly anaesthetized with 2% isoflurane and O2 mixture and given intraarticular (i.a.) injection of MIA (5 mg per rat in […]) through the intrapatellar ligament of the left knee (Combe et al., 2004). MIA was dissolved in 0.9% sterile saline and administered using a 26½ gauge needle. Contralateral knees were injected intra-articularly with 50 μl of 0.9% sterile saline. Weight bearing deficit in ipsilateral paw was assessed 20 h post MIA injection by measuring weight borne by both hind limbs.
# On the day of the experiment (20 h after MIA injection), rats were evaluated for pre-dose weight bearing deficit to assess the effect of MIA. After regrouping the rats after randomization, the pre- & post-dose weight bearing deficit, was assessed for both hind limbs. Rats were orally dosed with vehicle, naproxen, compound I potassium salt and combination (Naproxen+Compound I—simultaneously). The effect of compound I, naproxen and their combination, in MIA-osteoarthritis induced weight bearing deficit in male SD rats, was evaluated using Incapacitance meter (IITC Inc.) fitted with a perspex chamber designed so that each hind paw rat rests on separate transducer pads to record animal's weight on each paw. […] The % reversal of weight bearing deficit was calculated as per standard procedure. […]
Structure (SMILES),maximal % reversal of hyperalgesia [1] [%],maximal % reversal of thermal hyperalgesia [2] [%],maximal % reversal of mechanical punctate allodynia ([3]; Compound III 0.132 mg/kg p.o. alone) [%],"maximal % reversal of mechanical hyperalgesia ([4]; Compound III 0.039 mg/kg p.o. alone, Example 16, Table 19, FIG. 21) [%]","maximal % reversal of mechanical hyperalgesia ([4]; Compound III 0.039 mg/kg p.o. alone, Example 17, Table 20, FIG. 23) [%]",maximal % reversal of weight bearing deficit [5] [%],maximal % reversal of mechanical punctate allodynia ([3]; naproxen 3 mg/kg p.o. alone) [%],"maximal % reversal of hyperalgesia ([4]; naproxen 3 mg/kg p.o. alone, Example 2, Table 3, FIG. 3) [%]","maximal % reversal of hyperalgesia ([4]; naproxen 3 mg/kg p.o. alone, Example 10, Table 13, FIG. 14) [%]","maximal % reversal of mechanical hyperalgesia ([4]; naproxen 3 mg/kg p.o. alone, Example 17, Table 20, FIG. 23) [%]","maximal % reversal of hyperalgesia ([4]; naproxen 5 mg/kg p.o. alone, Example 2, Table 4, FIG. 4) [%]"
"Cn1c(=O)c2c(CC(=O)N=c3scc(-c4ccc(C(F)(F)F)c(F)c4F)n3COP(=O)(O)O)nsc2n(C)c1=O [Compound III, [4-[2,3-difluoro-4-(trifluoromethyl)phenyl]-2-{[(5,7-dimethyl-4,6-dioxo-4,5,6,7-tetrahydro[1,2]thiazolo[5,4-d]pyrimidin-3-yl)acetyl]imino}-1,3-thiazol-3(2H)-yl]methyl dihydrogen phosphate]",19,22,19,17,17,,,,,,
COc1ccc2cc([C@H](C)C(=O)O)ccc2c1 [naproxen],,,,,,39,18,23,18,17,32
